Laboratory results published in patent US4442044A, “Process for preparing monoesters and diesters of N-alkyl substituted amino methyl phosphonic acid” (priority 1983, dated 1984).

Columns and labels:
Type in all cases: in vivo
Morningglory [1] = experiment: pre-emergent herbicidal activity, soil incorporation; settings: Table III, 2 WAT, 11.2 kg/h
Text: (§1) A good grade of top soil is placed in aluminum pans and compacted to a depth of 0.95 to 1.27 cm. from the top of each pan. A predetermined number of seeds or vegetative propagules of each of several plant species are placed on top of the soil in each pan and then pressed down. Herbicidal compositions prepared as in the previous example are applied by admixture with or incorporation in the top layer of soil.
(§2) In this method, the soil required to cover the seeds and propagules is weighed and admixed with a herbicidal composition containing a known amount of the active ingredient (compound of this invention). The pans are then filled with the admixture and leveled. Watering is carried out by permitting the soil in the pans to absorb moisture through apertures in the pan bottoms. The seed and propagule containing pans are placed on a wet sand bench and maintained for approximately two weeks under ordinary conditions of sunlight and watering. At the end of this period, the number of emerged plants of each species is noted and compared to an untreated control.
(§3) The pre-emergent herbicidal activity index used below is based upon average percent control of each species as follows: […]

Quackgrass [2] = experiment: as above; settings: Table III, 2 WAT, 11.2 kg/h
Text: as §1, §2, §3

Canada Thistle = experiment: as above; settings: Table III, 2 WAT, 11.2 kg/h
Text: as §1, §2, §3

Johnsongrass = experiment: as above; settings: Table III, 2 WAT, 11.2 kg/h
Text: as §1, §2, §3

Smartweed [3] = experiment: as above; settings: Table III, 2 WAT, 11.2 kg/h
Text: as §1, §2, §3

Yellow Nutsedge [4] = experiment: as above; settings: Table III, 2 WAT, 11.2 kg/h
Text: as §1, §2, §3

Downy Brome [5] = experiment: as above; settings: Table III, 2 WAT, 11.2 kg/h
Text: as §1, §2, §3

Lambsquarters [6] = experiment: as above; settings: Table III, 2 WAT, 11.2 kg/h
Text: as §1, §2, §3

Barnyardgrass [7] = experiment: as above; settings: Table III, 2 WAT, 11.2 kg/h
Text: as §1, §2, §3

Cocklebur [8] = experiment: as above; settings: Table III, 2 WAT, 11.2 kg/h
Text: as §1, §2, §3

Velvetleaf [9] = experiment: as above; settings: Table III, 2 WAT, 11.2 kg/h
Text: as §1, §2, §3

Sugar Beet = experiment: post-emergent herbicidal activity, greenhouse; settings: Table II, 4 WAT
Procedure, shortened: (§4)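 Post-emergence foliar spray at tabulated application rates, using aliquots of a 1.0% stock in acetone, THF or water plus ~0.4% emulsifier, applied to 2–3-week-old greenhouse plants. Plant injury was rated relative to controls roughly two and four weeks after treatment.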

Morningglory [10] = experiment: post-emergent herbicidal activity, greenhouse; settings: 4 WAT
Procedure, shortened: as §4

Quackgrass [11] = experiment: post-emergent herbicidal activity, greenhouse; settings: Table I, 4 WAT, 11.2 kg/h
Procedure, shortened: as §4

Smartweed [12] = experiment: post-emergent herbicidal activity, greenhouse; settings: 4 WAT
Procedure, shortened: as §4

Hemp Sesbania = experiment: post-emergent herbicidal activity, greenhouse; settings: Table II, 4 WAT
Procedure, shortened: as §4

Panicum Spp = experiment: post-emergent herbicidal activity, greenhouse; settings: Table II, 4 WAT
Procedure, shortened: as §4

Yellow Nutsedge [13] = experiment: post-emergent herbicidal activity, greenhouse; settings: Table I, 4 WAT, 5.6 kg/h
Procedure, shortened: as §4

Crabgrass = experiment: post-emergent herbicidal activity, greenhouse; settings: Table II, 4 WAT
Procedure, shortened: as §4

Downy Brome [14] = experiment: post-emergent herbicidal activity, greenhouse; settings: Table II, 4 WAT
Procedure, shortened: as §4

Lambsquarters [15] = experiment: post-emergent herbicidal activity, greenhouse; settings: 4 WAT
Procedure, shortened: as §4

Soybean = experiment: post-emergent herbicidal activity, greenhouse; settings: Table II, 4 WAT
Procedure, shortened: as §4

Sorghum = experiment: post-emergent herbicidal activity, greenhouse; settings: Table II, 4 WAT
Procedure, shortened: as §4

Rice = experiment: post-emergent herbicidal activity, greenhouse; settings: Table II, 4 WAT
Procedure, shortened: as §4

Barnyardgrass [16] = experiment: post-emergent herbicidal activity, greenhouse; settings: 4 WAT
Procedure, shortened: as §4

Cocklebur [17] = experiment: post-emergent herbicidal activity, greenhouse; settings: Table II, 4 WAT
Procedure, shortened: as §4

Wheat = experiment: post-emergent herbicidal activity, greenhouse; settings: Table II, 4 WAT
Procedure, shortened: as §4

Velvetleaf [18] = experiment: post-emergent herbicidal activity, greenhouse; settings: 4 WAT
Procedure, shortened: as §4

Wild Buckwheat = experiment: post-emergent herbicidal activity, greenhouse; settings: Table II, 4 WAT
Procedure, shortened: as §4

CCOC(=O)CNCP(=O)(O)OC(C)C#N (stereo not drawn) [Example 5, glycine, N-[[(1-cyanoethoxy)hydroxy-phosphinyl]methyl]ethyl ester]
pre-emergent herbicidal activity index (Morningglory [1]): 0 (1-24% control) | pre-emergent herbicidal activity index (Quackgrass [2]): 2 (50-74% control) | pre-emergent herbicidal activity index (Canada Thistle): 3 (75-100% control) | pre-emergent herbicidal activity index (Johnsongrass): 0 (1-24% control) | pre-emergent herbicidal activity index (Smartweed [3]): 0 (1-24% control) | pre-emergent herbicidal activity index (Yellow Nutsedge [4]): 1 (25-49% control) | pre-emergent herbicidal activity index (Downy Brome [5]): 0 (1-24% control) | pre-emergent herbicidal activity index (Lambsquarters [6]): 3 (75-100% control) | pre-emergent herbicidal activity index (Barnyardgrass [7]): 0 (1-24% control) | pre-emergent herbicidal activity index (Cocklebur [8]): 0 (1-24% control) | pre-emergent herbicidal activity index (Velvetleaf [9]): 0 (1-24% control) | post-emergent herbicidal activity index (Sugar Beet; 0.28 kg/h): 1 (25-49% control) | post-emergent herbicidal activity index (Sugar Beet; 1.12 kg/h): 2 (50-74% control) | post-emergent herbicidal activity index (Sugar Beet; 5.6 kg/h): 4 (100% control) | post-emergent herbicidal activity index (Morningglory [10]; Table I, 5.6 kg/h): 3 (75-99% control) | post-emergent herbicidal activity index (Morningglory [10]; Table I, 11.2 kg/h): 4 (100% control) | post-emergent herbicidal activity index (Morningglory [10]; Table II, 0.28 kg/h): 2 (50-74% control) | post-emergent herbicidal activity index (Morningglory [10]; Table II, 1.12 kg/h): 2 (50-74% control) | post-emergent herbicidal activity index (Morningglory [10]; Table II, 5.6 kg/h): 4 (100% control) | post-emergent herbicidal activity index (Quackgrass [11]): 4 (100% control) | post-emergent herbicidal activity index (Smartweed [12]; Table I, 5.6 kg/h): 4 (100% control) | post-emergent herbicidal activity index (Smartweed [12]; Table I, 11.2 kg/h): 4 (100% control) | post-emergent herbicidal activity index (Smartweed [12]; Table II, 0.28 kg/h): 2 (50-74% control) | post-emergent herbicidal activity index (Smartweed [12]; Table II, 1.12 kg/h): 4 (100% control) | post-emergent herbicidal activity index (Smartweed [12]; Table II, 5.6 kg/h): 4 (100% control) | post-emergent herbicidal activity index (Hemp Sesbania; 0.28 kg/h): 1 (25-49% control) | post-emergent herbicidal activity index (Hemp Sesbania; 1.12 kg/h): 2 (50-74% control) | post-emergent herbicidal activity index (Hemp Sesbania; 5.6 kg/h): 3 (75-99% control) | post-emergent herbicidal activity index (Panicum Spp; 0.28 kg/h): 3 (75-99% control) | post-emergent herbicidal activity index (Panicum Spp; 1.12 kg/h): 4 (100% control) | post-emergent herbicidal activity index (Panicum Spp; 5.6 kg/h): 4 (100% control) | post-emergent herbicidal activity index (Yellow Nutsedge [13]): 3 (75-99% control) | post-emergent herbicidal activity index (Crabgrass; 0.28 kg/h): 3 (75-99% control) | post-emergent herbicidal activity index (Crabgrass; 1.12 kg/h): 4 (100% control) | post-emergent herbicidal activity index (Crabgrass; 5.6 kg/h): 4 (100% control) | post-emergent herbicidal activity index (Downy Brome [14]; 0.28 kg/h): 1 (25-49% control) | post-emergent herbicidal activity index (Downy Brome [14]; 1.12 kg/h): 2 (50-74% control) | post-emergent herbicidal activity index (Downy Brome [14]; 5.6 kg/h): 3 (75-99% control) | post-emergent herbicidal activity index (Lambsquarters [15]; Table I, 11.2 kg/h): 4 (100% control) | post-emergent herbicidal activity index (Lambsquarters [15]; Table II, 0.28 kg/h): 2 (50-74% control) | post-emergent herbicidal activity index (Lambsquarters [15]; Table II, 1.12 kg/h): 4 (100% control) | post-emergent herbicidal activity index (Lambsquarters [15]; Table II, 5.6 kg/h): 4 (100% control) | post-emergent herbicidal activity index (Soybean; 0.28 kg/h): 1 (25-49% control) | post-emergent herbicidal activity index (Soybean; 1.12 kg/h): 2 (50-74% control) | post-emergent herbicidal activity index (Soybean; 5.6 kg/h): 4 (100% control) | post-emergent herbicidal activity index (Sorghum; 0.28 kg/h): 3 (75-99% control) | post-emergent herbicidal activity index (Sorghum; 1.12 kg/h): 3 (75-99% control) | post-emergent herbicidal activity index (Sorghum; 5.6 kg/h): 4 (100% control) | post-emergent herbicidal activity index (Rice; 0.28 kg/h): 0 (0-24% control) | post-emergent herbicidal activity index (Rice; 1.12 kg/h): 2 (50-74% control) | post-emergent herbicidal activity index (Rice; 5.6 kg/h): 4 (100% control) | post-emergent herbicidal activity index (Barnyardgrass [16]; Table I, 5.6 kg/h): 4 (100% control) | post-emergent herbicidal activity index (Barnyardgrass [16]; Table I, 11.2 kg/h): 4 (100% control) | post-emergent herbicidal activity index (Barnyardgrass [16]; Table II, 0.28 kg/h): 3 (75-99% control) | post-emergent herbicidal activity index (Barnyardgrass [16]; Table II, 1.12 kg/h): 3 (75-99% control) | post-emergent herbicidal activity index (Barnyardgrass [16]; Table II, 5.6 kg/h): 4 (100% control) | post-emergent herbicidal activity index (Cocklebur [17]; 0.28 kg/h): 2 (50-74% control) | post-emergent herbicidal activity index (Cocklebur [17]; 1.12 kg/h): 2 (50-74% control) | post-emergent herbicidal activity index (Cocklebur [17]; 5.6 kg/h): 4 (100% control) | post-emergent herbicidal activity index (Wheat; 0.28 kg/h): 1 (25-49% control) | post-emergent herbicidal activity index (Wheat; 1.12 kg/h): 3 (75-99% control) | post-emergent herbicidal activity index (Wheat; 5.6 kg/h): 4 (100% control) | post-emergent herbicidal activity index (Velvetleaf [18]; Table I, 11.2 kg/h): 4 (100% control) | post-emergent herbicidal activity index (Velvetleaf [18]; Table II, 0.28 kg/h): 1 (25-49% control) | post-emergent herbicidal activity index (Velvetleaf [18]; Table II, 1.12 kg/h): 2 (50-74% control) | post-emergent herbicidal activity index (Velvetleaf [18]; Table II, 5.6 kg/h): 4 (100% control) | post-emergent herbicidal activity index (Wild Buckwheat; 0.28 kg/h): 0 (0-24% control) | post-emergent herbicidal activity index (Wild Buckwheat; 1.12 kg/h): 2 (50-74% control) | post-emergent herbicidal activity index (Wild Buckwheat; 5.6 kg/h): 4 (100% control)
